ChEMBL document CHEMBL3769402, “Discovery of novel N,N-3-phenyl-3-benzylaminopropionanilides as potent inhibitors of cholesteryl ester transfer protein in vivo” (Bioorg Med Chem, 2016)

Key:
Syrian golden hamster [1] = assay: Increase in HDL-cholesterol level in high cholesterol/lipid diet fed po dosed golden syrian hamster administered daily for 4 weeks; format: functional, organism-based; details: Mesocricetus auratus
Syrian golden hamster [2] = assay: Decrease in LDL-cholesterol level in high cholesterol/lipid diet fed golden syrian hamster at 50 mg/kg/day, po for 4 weeks; format: functional; details: Mesocricetus auratus, 672 h
Syrian golden hamster [3] = assay: Decrease in LDL-cholesterol level in high cholesterol/lipid diet fed golden syrian hamster at 100 mg/kg/day, po for 4 weeks; format: functional; details: Mesocricetus auratus, 672 h
Syrian golden hamster [4] = assay: Decrease in LDL-cholesterol level in high cholesterol/lipid diet fed po dosed golden syrian hamster administered daily for 4 weeks; format: functional, organism-based; details: Mesocricetus auratus
Syrian golden hamster [5] = assay: Increase in HDL-cholesterol level in high cholesterol/lipid diet fed golden syrian hamster at 50 mg/kg/day, po for 4 weeks; format: functional, Mesocricetus auratus
Syrian golden hamster [6] = assay: Toxicity in golden syrian hamster assessed as mortality at 20 to 100 mg/kg/day, po for 4 weeks; format: organism-based, Mesocricetus auratus; details: in vivo, 672 h
Syrian golden hamster [7] = assay: Increase in HDL-cholesterol level in high cholesterol/lipid diet fed golden syrian hamster at 100 mg/kg/day, po for 4 weeks; format: functional, Mesocricetus auratus
CYP450 [8] = assay: Drug metabolism in KM rat liver microsomes assessed as CYP450 mediated compound reduction at 100 uM after 17.1 min by LC-MS/MS analysis in presence of NADPH; format: ADME; details: read-out: Drug metabolism
[9] = target: T1, Cholesteryl ester transfer protein (Homo sapiens, UniProt P11597); assay: Inhibition of full-length human recombinant CETP expressed in CHO cells by BODIPY-CE dye based fluorescence assay; format: cell-based
T1 sequence (P11597 whole entry): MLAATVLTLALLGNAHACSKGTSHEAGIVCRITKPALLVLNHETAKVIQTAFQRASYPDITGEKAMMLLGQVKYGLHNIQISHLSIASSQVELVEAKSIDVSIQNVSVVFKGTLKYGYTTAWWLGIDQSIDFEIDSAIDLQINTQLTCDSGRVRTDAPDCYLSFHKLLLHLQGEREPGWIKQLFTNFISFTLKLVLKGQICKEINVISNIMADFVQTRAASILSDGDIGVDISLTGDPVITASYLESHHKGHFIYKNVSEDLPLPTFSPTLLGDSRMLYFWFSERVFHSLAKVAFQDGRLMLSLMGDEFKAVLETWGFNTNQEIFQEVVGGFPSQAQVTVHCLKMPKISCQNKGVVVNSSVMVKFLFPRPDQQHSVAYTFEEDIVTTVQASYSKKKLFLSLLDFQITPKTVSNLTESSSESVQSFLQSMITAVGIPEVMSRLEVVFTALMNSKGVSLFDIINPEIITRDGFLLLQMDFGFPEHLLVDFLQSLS

Syrian golden hamster [10] = assay: Increase in HDL-cholesterol level in high cholesterol/lipid diet fed golden syrian hamster at 20 mg/kg/day, po for 4 weeks; format: functional, Mesocricetus auratus
CYP450 [11] = assay: Drug metabolism in KM rat liver microsomes assessed as CYP450 mediated compound oxidation at 100 uM after 17.1 min by LC-MS/MS analysis in presence of NADPH; format: ADME; details: read-out: Drug metabolism
Syrian golden hamster [12] = assay: Decrease in LDL-cholesterol level in high cholesterol/lipid diet fed golden syrian hamster at 20 mg/kg/day, po for 4 weeks; format: functional; details: Mesocricetus auratus, 672 h

| IC50 [9] [µM] | SMILES | also measured |
| --- | --- | --- |
| 2.3 | CCOC(=O)c1ccc(NC(=O)CCN(c2cc(Cl)cc(-c3ccccc3)c2)S(=O)(=O)c2ccc(F)cc2)cc1 |  |
| 3.4 | CCOC(=O)c1ccc(NC(=O)CCN(Cc2ccc(F)cc2)c2cc(Cl)cc(-c3ccccc3)c2)cc1 |  |
| 9.5 | CCOC(=O)c1ccc(NC(=O)CCN(Cc2ccc(C(F)(F)F)cc2)c2ccc(Cl)c(Cl)c2)cc1 |  |
| 18.2 | CCOC(=O)c1ccc(N2CCN(C(=O)CCN(Cc3ccc(C(F)(F)F)cc3)c3ccc(Cl)c(Cl)c3)CC2)cc1 |  |
| 2.9 | CCOC(=O)c1ccc(N2CCN(C(=O)CCN(Cc3ccc(F)cc3)c3ccc(Cl)c(-c4ccccc4)c3)CC2)cc1 |  |
| 0.69 | CCOC(=O)c1ccc(N2CCN(C(=O)CCN(Cc3ccc(F)cc3)c3cccc(Oc4ccccc4)c3)CC2)cc1 |  |
| 5.4 | CCOC(=O)c1ccc(NC(=O)CCN(Cc2cc(C(F)(F)F)cc(C(F)(F)F)c2)c2ccc(Cl)c(Cl)c2)cc1 |  |
| 0.24 | CCOC(=O)c1ccc(NC(=O)CCN(Cc2ccc(F)cc2)c2cccc(Oc3ccccc3)c2)cc1 |  |
| 9.1 | O=C(CCN(Cc1ccc(F)cc1)c1ccc(Cl)c(Cl)c1)Nc1ccc(C(=O)O)cc1 |  |
| 2 | CCOC(=O)c1ccc(NC(=O)CCN(Cc2ccc(F)cc2)c2ccc(Cl)c(Cl)c2)cc1 |  |
| 16.7 | CCOC(=O)c1ccc(NC(=O)CCN(Cc2ccc(F)cc2)c2ccc(-c3ccccc3)cc2)cc1 |  |
| > 50 | COc1ccc(N2CCN(C(=O)CCN(Cc3ccc(F)cc3)c3ccc(Oc4ccccc4)cc3)CC2)cc1 |  |
| 12.4 | CCOC(=O)c1ccc(N2CCN(C(=O)CCN(Cc3ccc(F)cc3)c3ccc(Cl)c(Cl)c3)CC2)cc1 |  |
| 4.9 | COc1ccc(N2CCN(C(=O)CCN(Cc3ccc(F)cc3)c3ccc(Cl)c(Cl)c3)CC2)cc1 |  |
| 1.3 | CCOC(=O)c1ccc(NC(=O)CCN(c2ccc(Cl)c(-c3ccccc3)c2)S(=O)(=O)c2ccc(F)cc2)cc1 |  |
| 2.7 | CCOC(=O)c1ccc(NC(=O)CCN(Cc2ccc(F)cc2)c2ccc(Cl)c(-c3ccccc3)c2)cc1 |  |
| 6.7 | CCOC(=O)c1ccc(N2CCN(C(=O)CCN(Cc3ccc(F)cc3)c3ccc(Oc4ccccc4)cc3)CC2)cc1 |  |

| SMILES | IC50 [9] [µM] | also measured |
| --- | --- | --- |
| CCOC(=O)c1ccc(NC(=O)CCN(c2cccc(Oc3ccccc3)c2)S(=O)(=O)c2ccc(F)cc2)cc1 | 0.15 | Activity (Syrian golden hamster [1]): Dose-dependent effect; inhibition in vivo at 50 mg/kg/day (Syrian golden hamster [2]): 36.2%; inhibition in vivo at 100 mg/kg/day (Syrian golden hamster [3]): 45.8%; inhibition (Syrian golden hamster [4]): Dose-dependent effect; Activity (Syrian golden hamster [5]): 34.7%; Activity (Syrian golden hamster [6]): Non-toxic; Activity (Syrian golden hamster [7]): 48.2%; metabolised at 0.285 h, 100 µM (CYP450 [8]): 36%; Activity (Syrian golden hamster [10]): 16.2%; metabolised at 0.285 h, 100 µM (CYP450 [11]): 36%; inhibition in vivo at 20 mg/kg/day (Syrian golden hamster [12]): 19.3% |
